Assay results taken from US20180161364A1 (priority 2015, published 2018).

Key:
Type in all cases: cell-based
[1] = tested on: Pseudomonas aeruginosa (DSM 1128/ATCC 9027); test: microbe, parasite or virus in culture; details: P. aeruginosa
Source text: (§1) The following bacteria and fungi strains and methods were used:
(§2) Pseudomonas aeruginosa and Escherichia coli: MIC determined in accordance with DIN EN ISO 20776-1: 2006.

[2] = tested on: Escherichia coli (DSM 1576/ATCC 8739); test: microbe, parasite or virus in culture; details: E. coli
Source text: as §1, §2

[3] = tested on: Human corneal epithelial cells (HCE-T-cell line); test: MTT toxicity test; details: compound 0.01%, 10 minutes treatment, in reference to KRB (100% viability) and Triton X (0% viability)
Experimental: The toxicity of the compounds of the invention was determined in accordance with a conventional MTT test. Human corneal epithelial cells (HCE-T-cell line) were cultivated in 5% Sasaki cell culture medium consisting of 250 ml DMEM (Dulbecco's Modified Eagle's Medium), 250 ml Ham's F12 medium, 27.17 ml fetale calf serum, 543.4 μl insulin 5 mg/ml, 1.086 ml EGF stock solution 5 μg/ml, 2.717 ml DMSO and 5.43 ml antibiotic/antimycotic solution. The cells were seeded into a 96 wells cell culture plate (18 000 cells/well) and grown in an incubator for about 24 h (37° C., 5% CO2). The medium was removed and the test compounds dissolved in KRB (Krebs Ringer buffer) were applied. 100 μl KRB were used as positive control whereas a 0.5% Triton X solution was used as negative control.
After incubation for 10 min. under light protection the test compounds were removed and the plates were rinsed once with 100 μl phosphate buffered saline (PBS without Mg and Ca) per well. After removal of PBS 100 μl MTT reagent (0.05%) were added into each well followed by incubation for 3h at 37° C. under light protection. Thereafter, the reagent was removed and replaced by 100 μl lysis solution. The dark blue dye was dissolved from the cells by shaking. After 30 min. the plate was evaluated by UV spectroscopy at 570 nm.

[4] = tested on: Aspergillus brasiliensis (DSM 1988/ATCC 16404); test: microbe, parasite or virus in culture
Source text: as §1
Aspergillus brasiliensis (2d) and (9d): MIC determined in accordance with a method of the European Committee on Antimicrobial Susceptibility Testing: EUCAST E.DEF 9.1, July 2008, “Method for the determination of broth dilution minimum inhibitory concentrations of antifungal agents for conidia forming moulds” available under www.eucast.

[5] = tested on: Candida albicans (DSM 1386/ATCC 10231); test: microbe, parasite or virus in culture; details: C. albicans
Source text: as §1
Candida albicans: MIC determined in accordance with the method described in EUCAST DEFINITIVE DOCUMENT EDef 7.2 “Method for the determination of broth dilution minimum inhibitory concentrations of antifungal agents for yeasts” available under www.eucast.org.

Compound	MIC [1] [µg/mL]	MIC [2] [µg/mL]	Viability [3] [%]	MIC ([4]; 48 h, A. bras. (2d)) [µg/mL]	MIC ([4]; 216 h, A. bras. (9d)) [µg/mL]	MIC [5] [µg/mL]
CCCCCCCCCCCC[N+](C)(C)CCCC[n+]1ccc(-c2ccncc2)cc1 [Ex. 6.2]	12.5	6.3	74.9 ± 12.0	6.3	6.3	< 3.12
CC[N+](CC)(CC)C/C=C/C[n+]1ccc(CCCc2cc[n+](C/C=C/C[n+]3ccc(CCCc4cc[n+](C/C=C/C[N+](CC)(CC)CC)cc4)cc3)cc2)cc1 [Ex. 3]	25	50	90.3 ± 7.0	12.5	12.5 to 25	< 3.1
BrCCCC[n+]1ccc(-c2ccncc2)cc1 [Ex. 5]	12.5	6.3	83.8 ± 12.6	3.1	3.1 to 50	1.56
c1cc(-c2cc[n+](CCCC[n+]3ccc(-c4ccncc4)cc3)cc2)ccn1 [Comp. ex. 3, reference compound]	> 400	200	–	200	200 to 400	200
